Experimental data: patent US10226530B2, “Methods for treating and/or limiting development of diabetes” (Biocrine AB, priority 2011, dated 2019)
“Also recorded” adds a separate entry of the source.

How the values were obtained:
β cell CaV channels [1] = experiment: perforated whole-cell patch-clamp of Ca2+ currents in RINm5F cells; type: cell-based, rat
Procedure: (§1) Islets of Langerhans were isolated from adult male and female mice and dispersed into single ([…]. RINm5F cells at about 70% confluency were trypsinized. The resultant suspension of cells was seeded into Petri dishes or 12-well plates. The cells were cultivated in RPMI 1640 medium supplemented with 10% fetal bovine serum, 2 mM L-glutamine, and 100 U/100 […] penicillin/streptomycin (Invitrogen, Carlsbad, Calif.) and maintained at 37° C. in a humidified 5% CO2 incubator. They were grown overnight and then subjected to siRNA transfection. For patch-clamp analysis, cells underwent overnight treatment with ApoCIII, the PKA inhibitor H-89 (Calbiochem, La Jolla, Calif.), the PKC inhibitor calphostin C (Calbiochem), the Src kinase inhibitor PP2 (Calbiochem) and the CaV1 channel blocker nimodipine (Calbiochem) in RPMI medium at final concentrations of 20 μg/ml, 0.5 μM, 0.1 μM, 0.1 μM and 5 μM, respectively. ApoCIII was dissolved in 0.1% triflouroacetic acid (TFA) to make a stock solution of 1 mg/ml, whereas H-89, calphostin C, PP2 and nimodipine were dissolved in dimethyl sulfoxide (DMSO) to form stock solutions of 5 mM, 1 mM, 1 mM and 10 mM, respectively. 0.002% TFA and/or 0.03% DMSO were used as vehicle controls.
Two pairs of 21-mer siRNA duplexes targeting the rat β1 integrin (β1 integrin siRNA #1, ID127971 and β1 integrin siRNA #2, ID127972) were designed and chemically synthesized by Applied Biosystems/Ambion (Austin, Tex.). Their sequences were subjected to BLAST search to ensure their specificity. Silencer® Select Negative Control siRNA (4390843), not targeting any gene product, and Silencer® Select GAPDH Positive Control siRNA (4390849), efficiently silencing GAPDH in human, mouse, and rat cells, were purchased from Applied Biosystems/Ambion (Austin, Tex.). RINm5F cells were reversely transfected with Lipofectamine™ RNAiMAX™. Briefly, negative control siRNA, β1 integrin siRNA #1 or β1 integrin siRNA #2 was mixed with Lipofectamine™ RNAiMAX™ followed by 20-min incubation at room temperature. Subsequently, cells were added to the siRNA/Lipofectamine™ RNAiMAX mixtures followed by gentle agitation and kept at 37° C. in a humidified 5% CO2 incubator. After 72 h, the transfected cells were grown to about 70% confluency and subjected to immunoblot assay or different treatments.
(§2) Mouse islet cells and RINm5F cells following different treatments were subjected to single channel and whole-cell patch-clamp measurements. Cell-attached and perforated whole-cell patch-clamp configurations were employed. Electrodes were made from borosilicate glass capillaries, fire-polished and coated with Sylgard close to their tips. Some of them were filled with a solution containing (in mM) 110 BaCl2, 10 TEA-Cl, and 5 HEPES (pH 7.4 with Ba(OH)2) for single channel measurements. Others were filled with a solution composed of (in mM) 76 Cs2SO4, 1 MgCl2, 10 KCl, 10 NaCl, and 5 HEPES (pH 7.35 with CsOH), as well as amphotericin B (0.24 mg/ml) for whole-cell current recordings. Electrode resistance ranged between 4 and 6 MΩ when they were filled with electrode solutions and immersed in bath solutions. The electrode offset potential was corrected in bath solutions prior to gigaseal formation. Single-channel recordings were performed with cells bathed in a depolarizing external recording solution, containing (in mM) 125 KCl, 30 KOH, 10 EGTA, 2 CaCl2, 1 MgCl2, and 5 HEPES-KOH (pH 7.15). This solution was used to bring the intracellular potential to 0 mV. For perforated whole-cell current measurements, the cells were bathed in a solution containing (in mM) 138 NaCl, 5.6 KCl, 1.2 MgCl2, 10 CaCl2, 5 HEPES (pH 7.4). Single channel and whole-cell currents were recorded with an Axopatch 200B amplifier (Molecular Devices, Foster City, Calif.) and an EPC-9 patch clamp amplifier (HEKA Elektronik, Lambrecht/Pfalz, Germany), respectively, at room temperature (about 22° C.). […]

CaV1 channels [2] = experiment: cell-attached single channel patch-clamp of unitary CaV1 channel currents in mouse islet β cells; type: cell-based
Procedure: as §1
as §2, with “For perforated whole-cell current measurements, the cells were bathed in a solution containing (in mM) 138 NaCl, 5.6 KCl, 1.2 MgCl2, 10 CaCl2, 5 HEPES (pH 7.4).” left out

CaV1 channels [3] = experiment: cell-attached single channel patch-clamp of unitary CaV1 channel currents in RINm5F cells; type: cell-based, rat; details: ApoCIII 20 μg/ml overnight versus vehicle solution
Procedure: as §1
as §2, with “For perforated whole-cell current measurements, the cells were bathed in a solution containing (in mM) 138 NaCl, 5.6 KCl, 1.2 MgCl2, 10 CaCl2, 5 HEPES (pH 7.4).” left out

CaV1.2 = experiment: immunoblot of CaV1.2 subunit in RINm5F cell homogenates; type: cell-based, rat; details: overnight ApoCIII; P>0.05
Procedure: as §1, with “ApoCIII was dissolved in 0.1% triflouroacetic acid (TFA) to make a stock solution of 1 mg/ml, whereas H-89, calphostin C, PP2 and nimodipine were dissolved in dimethyl sulfoxide (DMSO) to form stock solutions of 5 mM, 1 mM, 1 mM and 10 mM, respectively. 0.002% TFA and/or 0.03% DMSO were used as vehicle controls.” left out
(§3) RINm5F cells following different treatments were lysed in a lysis buffer (pH 7.5) consisting of 50 mM HEPES, 150 mM NaCl, 1 mM EGTA, 1 mM EDTA, 10% glycerol, 1% triton X-100, 1 mM PMSF and a protease inhibitor cocktail (Roche Diagnostics, Mannheim, Germany). […] The protein concentration of the resulting samples was determined with Bio-Rad protein assay reagent (Bio-Rad, Hercules, Calif.). […]

CaV1.3 = experiment: immunoblot of CaV1.3 subunit in RINm5F cell homogenates; type: cell-based, rat; details: overnight ApoCIII; P>0.05
Procedure: as §1, with “ApoCIII was dissolved in 0.1% triflouroacetic acid (TFA) to make a stock solution of 1 mg/ml, whereas H-89, calphostin C, PP2 and nimodipine were dissolved in dimethyl sulfoxide (DMSO) to form stock solutions of 5 mM, 1 mM, 1 mM and 10 mM, respectively. 0.002% TFA and/or 0.03% DMSO were used as vehicle controls.” left out
as §3

β cell CaV channels [4] = details: mouse islet β cell; Juntti-Berggren et al., 2004; cited from earlier work
[5] = H-89 0.5 μM, ApoCIII 20 μg/ml, overnight
[6] = ApoCIII 20 μg/ml overnight versus control vehicle

Molecule: CC(C)(C)n1nc(-c2ccc(Cl)cc2)c2c(N)ncnc21 [PP2]
- difference in Ca2+ current density to vehicle: ApoCIII/PP2-cotreated cells compared with that of ApoCIII-treated cells (β cell CaV channels [1]; PP2 0.1 μM): less prominent
- Ca2+ current densities, cells incubated with PP2 versus vehicle-treated cells (β cell CaV channels [1]; PP2 0.1 μM, absence of ApoCIII): similar
- Ca2+ currents, cotreatment of ApoCIII and PP2 versus vehicle control cells (β cell CaV channels [1]; voltage range 20-40 mV, PP2 0.1 μM): significantly larger

Molecule: O=S(=O)(NCCNC/C=C/c1ccc(Br)cc1)c1cccc2cnccc12 [H-89]
- Ca2+ current density, cotreatment of ApoCIII and H-89 versus cells treated with ApoCIII (β cell CaV channels [1]; [5]): did not significantly differ
- Ca2+ current density, cotreatment of ApoCIII and H-89 versus control cells (β cell CaV channels [1]; [5]): did not significantly differ
- Ca2+ current densities under basal conditions, H-89 versus control (β cell CaV channels [1]; H-89 0.5 μM, absence of ApoCIII): did not significantly influence

Molecule: apolipoprotein CIII [ApoCIII]
- mean closed time of unitary CaV1 channels (CaV1 channels [2]; ApoCIII 20 μg/ml overnight versus control patches): significantly shorter
- mean open time of unitary CaV1 channels (CaV1 channels [2]; [6]): significantly greater
- open probability of unitary CaV1 channels (CaV1 channels [2]; [6]): significantly greater
- average number of unitary CaV1 channels (CaV1 channels [2]; ApoCIII 20 μg/ml overnight versus control vehicle, plasma membrane patches): significantly greater
- channel number of CaV1 channels (CaV1 channels [3]): significantly increased
- mean closed time of CaV1 channels (CaV1 channels [3]): shortened
- mean open time of CaV1 channels (CaV1 channels [3]): prolonged
- open probability of CaV1 channels (CaV1 channels [3]): elevated
- density of whole-cell Ca2+ currents, ApoCIII group versus control group (β cell CaV channels [1]; no voltage range printed, H-89/PP2 experiment): Significantly higher
- Ca2+ current density, NC siRNA/apoCIII versus NC siRNA/Control (β cell CaV channels [1]; voltage range 10-40 mV, negative control siRNA-transfected cells): significant increase
- whole-cell Ca2+ current density, ApoCIII-treated cells versus vehicle control cells (β cell CaV channels [1]; voltage range 10 to 50 mV, ApoCIII 20 μg/ml overnight): significantly higher; also recorded: increased significantly; also recorded: significantly elevated; also recorded: significantly increased
- whole-cell Ca2+ current density, ApoCIII group versus control group (β cell CaV channels [1]; voltage range from 10 to 30 mV, ApoCIII 20 μg/ml overnight): significantly higher
- relative abundance of CaV1.2 subunits, ApoCIII incubation versus vehicle incubation (CaV1.2): no significant difference
- relative abundance of CaV1.3 subunits, ApoCIII incubation versus vehicle incubation (CaV1.3): no significant difference
- whole-cell Ca2+ currents after ApoCIII incubation (β cell CaV channels [4]): significantly enhances

Molecule: calphostin C [CalpC]
- Ca2+ current density, ApoCIII/CalpC-cotreated cells versus ApoCIII-treated cells (β cell CaV channels [1]; calphostin C 0.1 μM): no difference
- Ca2+ current density, CalpC-treated cells versus control vehicle (β cell CaV channels [1]; calphostin C 0.1 μM, absence of ApoCIII): similar
- mean Ca2+ current density, ApoCIII/CalpC versus vehicle control cells (β cell CaV channels [1]; voltage range from 20 to 50 mV, calphostin C 0.1 μM): increased significantly
